Assay results taken from patent US7342012B2, “Inhibitors of αLβ2 mediated cell adhesion” (Mitsubishi Tanabe Pharma Corporation, priority 1999, dated 2008).
Where a name gives a salt, the structure may show the parent alone.

| melting point [°C] | Compound |
| --- | --- |
| 136.1 | O=C1N(c2cc(Cl)cc(Cl)c2)C(=O)[C@]2(Cc3ccc(Br)cc3)C[C@@H](O)CN12 [Example 2, (5S, 7R)-5-(4-Bromobenzyl)-3-(3,5-dichlorophenyl)-7-hydroxy-1,3-diazabicyclo[3.3.0]octane-2,4-dione] |
| 50.4 | O=C1N(c2cc(Cl)cc(Cl)c2)C(=O)C2(Cc3ccc(OC(F)(F)F)cc3)C[C@@H](O)CN12 (stereo in doubt) [Example 268, (5R, 7R)-5-[4-(Trifluoromethoxy)benzyl]-3-(3,5-dichlorophenyl)-7-hydroxy-1,3-diazabicyclo[3.3.0]octane-2,4-dione] |
| 119.8 | COC(=O)N[C@@H]1CN2C(=O)N(c3cc(Cl)nc(Cl)c3)C(=O)[C@@]2(Cc2ccc(OC(F)(F)F)cc2)C1 [Example 250, (5R, 7S)-5-[4-(Trifluoromethoxy)benzyl]-3-(2,6-dichloro-4-pyridyl)-7-methoxycarbonylamino-1,3-diazabicyclo[3.3.0]octane-2,4-dione] |
| 128.8 | O=C1N(c2cc(Cl)cc(Cl)c2)C(=O)C2(Cc3ccc(Br)cc3)CCCCN12 (stereo not drawn) [Example 6, 6-(4-Bromobenzyl)-8-(3,5-dichlorophenyl)-1,8-diazabicyclo[4.3.0]nonane-7,9-dione] |
| 86.5 | O=C1CCCN1c1cccc(-c2ccc(CC34CCCN3C(=O)N(c3cc(Cl)cc(Cl)c3)C4=O)cc2)c1 (stereo not drawn) [Example 127, 5-[4-[3-(2-oxo-1-pyrrolidinyl)phenyl]benzyl]-3-(3,5-dichlorophenyl)-1,3-diazabicyclo[3.3.0]octane-2,4-dione] |
| 103 | N#Cc1ccc(CC23CCCN2C(=O)N(c2cc(Cl)c(N)c(Cl)c2)C3=O)cc1 (stereo not drawn) [Example 132, 5-(4-Cyanobenzyl)-3-(3,5-dichloro-4-aminophenyl)-1,3-diazabicyclo[3.3.0]octane-2,4-dione] |
| 66.5 | CC(O)c1cccc(-c2ccc(CC34CCCN3C(=O)N(c3cc(Cl)cc(Cl)c3)C4=O)cc2)c1 (stereo not drawn) [Example 223, 5-[4-[3-(!-Hydroxy)ethylphenyl]benzyl]-3-(3,5-dichlorophenyl)-1,3-diazabicyclo[3.3.0]octane-2,4-dione] |
| 120.4 | CC(=O)c1cccc(N2C(=O)N3CCCC3(Cc3ccc(Br)cc3)C2=O)c1 (stereo not drawn) [Example 237] |
| 120.9 | O=C1N(c2cccc(F)c2)C(=O)C2(Cc3ccc(Br)cc3)CCCN12 (stereo not drawn) [Example 238] |
| 112.4 | Cc1cc([C@H]2CN3C(=O)N(c4cc(Cl)nc(Cl)c4)C(=O)[C@]3(Cc3ccc(OC(F)(F)F)cc3)C2)c(C)[nH]1 [Example 288, (5R, 7S)-5-[4-(Trifluoromethoxy)benzyl]-3-(2,6-dichloro-4-pyridyl)-7-(2,5-dimethylpyrrolyl)-1,3-diazabicyclo[3.3.0]octane-2,4-dione] |
| 101.5 | O=C(O)CC1=CC2(Cc3ccc(Br)cc3)C(=O)N(c3cc(Cl)cc(Cl)c3)C(=O)N2C1 (stereo not drawn) [Example 37, 5-(4-Bromobenzyl)-3-(3,5-dichlorophenyl)-7-carboxymethyl-1,3-diazabicyclo[3.3.0]oct-6-ene-2,4-dione] |
| 241 | N#Cc1cccc(N2C(=O)N3CCCC3(Cc3ccc(Br)cc3)C2=O)c1 (stereo not drawn) [Example 234] |
| 150.6 | N[C@@H]1CN2C(=O)N(c3cc(Cl)nc(Cl)c3)C(=O)[C@@]2(Cc2ccc(OC(F)(F)F)cc2)C1 [Example 63, (5R,7S)-5-[4-(Trifluoromethoxy)benzyl]-3-(2,6-dichloro-4-pyridyl)-7-amino-1,3-diazabicyclo[3.3.0]octane-2,4-dione] |
| 89.6 | CC(=O)N1CCN2C(=O)N(c3cc(Cl)cc(Cl)c3)C(=O)C2(Cc2ccc(Br)cc2)C1 (stereo not drawn) [Example 28, 4-Acetyl-6-(4-bromobenzyl)-8-(3,5-dichloro-phenyl)-1,4,8-triazabicyclo[4.3.0]nonane-7,9-dione] |
| 158 | O=C(c1ccc(Cl)c(Cl)c1)N1C(=O)N2CCCC2(Cc2ccc(Br)cc2)C1=O (stereo not drawn) [Example 109, 5-(4-Bromobenzyl)-3-(3,4-dichlorobenzoyl)-1,3-diazabicyclo[3.3.0]octane-2,4-dione] |
| 221 | CN1CCN2C(=O)N(c3cc(Cl)cc(Cl)c3)C(=O)C2(Cc2ccc(Br)cc2)C1 (stereo not drawn) [Example 29, 4-Methyl-6-(4-bromobenzyl)-8-(3,5-dichloro-phenyl)-1,4,8-triazabicyclo[4.3.0]nonane-7,9-dione] |
| 122.7 | CNC(=O)C1CN2C(=O)N(c3cc(Cl)cc(Cl)c3)C(=O)C2(Cc2ccc(OC(F)(F)F)cc2)C1 (stereo not drawn) [Example 319] |
| 98 | CC(=O)Nc1cccc(-c2ccc(CC34CCCN3C(=O)N(c3cc(Cl)cc(Cl)c3)C4=O)cc2)c1 (stereo not drawn) [Example 119] |
| 160.3 | O=C1N(c2cc(Cl)cc(Cl)c2)C(=O)C2(Cc3ccc(Br)cc3)CC(F)(F)CN12 (stereo not drawn) [Example 110, 5-(4-Bromobenzyl)-3-(3,5-dichlorophenyl)-7,7-difluoro-1,3-diazabicyclo[3.3.0]octane-2,4-dione] |
| 223 | CCN(CC)CCN1CCN2C(=O)N(c3cc(Cl)cc(Cl)c3)C(=O)C2(Cc2ccc(Br)cc2)C1 (stereo not drawn) (as salt: HCl) [Example 32, 4-[2-(Diethylamino)ethyl]-6-(4-bromobenzyl)-8-(3,5-dichlorophenyl)-1,4,8-triazabicyclo[4.3.0]nonane-7,9-dione] |
| 266.5 | N#Cc1ccc(CC23CCCN2C(=O)N(c2cc(Cl)cc(-n4cccc4)c2)C3=O)cc1 (stereo not drawn) [Example 51, 5-(4-Cyanobenzyl)-3-[3-chloro-5-(1-pyrrolyl)-phenyl]-1,3-diazabicyclo[3.3.0]octane-2,4-dione] |
| 81 | COC(=O)N1CCCC2(Cc3ccc(Br)cc3)C(=O)N(c3cc(Cl)nc(Cl)c3)C(=O)N12 (stereo not drawn) [Example 102, 6-(4-Bromobenzyl)-8-(2,6-dichloro-4-pyridyl)-2-methoxycarbonyl-1,2,8-triazabicyclo[4.3.0]nonane-7,9-dione] |
| 207.2 | CS(=O)(=O)N[C@@H]1CN2C(=O)N(c3cc(Cl)nc(Cl)c3)C(=O)[C@@]2(Cc2ccc(OC(F)(F)F)cc2)C1 [Example 254, (5R, 7S)-5-[4-(Trifluoromethoxy)benzyl]-3-(2,6-dichloro-4-pyridyl)-7-methanesulfonylamino-1,3-diazabicyclo[3.3.0]octane-2,4-dione] |

| Compound | melting point [°C] |
| --- | --- |
| CC(C)(C)OC(=O)N1CCC2(Cc3ccc(C#N)cc3)C(=O)N(c3cc(Cl)nc(Cl)c3)C(=O)N12 (stereo not drawn) [Example 56, 8-(t-Butoxycarbonyl)-5-(4-cyanobenzyl)-3-(2,6-dichloro-4-pyridyl)-1,3,8-triazabicyclo[3.3.0]octane-2,4-dione] | 179 |
